# In patent publication US20160367497A1, “METHODS AND COMPOSITIONS FOR TREATING NEUROPATHIES” (Washington University, priority 2007, published 2016):
# What was measured:
# [1] = test system: optic nerve (retinal ganglion cell axons); test: optic nerve transection after intravitreal injection, neurofilament Western blot; assay type: in vivo, rat; conditions: 24 hours before transection, 4 days after transection
# Procedure: FIG. 9 illustrates optic nerve transection after intravitreal injection of NAD biosynthetic substrates NAD, NMN, NmR, or Nam was injected into intravitreal compartment of left rat eye and allowed to incorporate retinal ganglion cells for 24 hours after which, left optic nerve was transected by eye enucleation and right and left optic nerves were collected at 4 days after transection and analyzed by Western blotting in which optic nerves transected from […] without any treatment prior to axotomy were used for negative control; showing in the figure, the quantitative analysis data of percentage of remaining neurofilament immunoreactivity from transected optic nerve relative to non-transected±S.D.
# Administration of NAD biosynthetic substrates and optic Nerve transection. Nam, NMN, NmR, or NAD was dissolved in PBS at the concentration of 100 mM or 1 M. Each of 5 μl solution was injected into left intravitreal component under the anesthesia at a rate of […]. The left optic nerve was transected at 24 hours after intravitreal injection and optic nerve was recovered at indicated time. Optic nerve tissue was homogenized in 100 μl of a buffer containing 100 mM tris-HCl (pH 6.8), 1% SDS, and 1 mM DTT. Fifty μg of protein for each sample was analyzed by the Western blotting using anti-neurofilament antibody 2H3 (Developmental Studies Hybridoma Center) and peroxidase-conjugated secondary antibody (Jackson ImmunoResearch). The degeneration rate was calculated from the ratio of the neurofilament immunoreactivity of transected vs. contralateral nerves.
# Transection of optic nerve is an in vivo model which can be used to investigate mechanisms leading to Wallerian degeneration and following retinal ganglion cell (RGC) death observed in human diseases such as glaucoma. In the C57BL/Wlds mouse strain, optic nerve degeneration during Wallerian degeneration after axotomy is dramatically slowed. In addition, intravitreal injection is used for screening of compounds that protect RGC axon from degeneration in vivo and thus we can asses the axon protective effect of each NAD biosynthetic substrates in vive by intraocular injection of compounds including NAD, NMN, NmR, and Nam. From in vitro Wallerian degeneration assay, 1 mM of NAD, NMN, and NmR in the culture media is enough to protect axon from degeneration. We initially injected 5 μl of 100 mM or 1 M NAD solution into left intravitreal compartment. After 24 hours incubation, left optic nerve was transected and control (right) and axotomized (left) optic nerve were collected at 3, 4, and 5 days after transection. Neurofilament immunoreactivity from the axotomized optic nerve was measured and normalized against the value obtained from the right side of the optic nerve.
# [2] = test system: DRG neuronal explant cultures; test: in vitro Wallerian degeneration assay, DRG explant neurite transection; assay type: cell-based, mouse; conditions: for neurite protection after transection: 1 mM applied for 24 hours before neurite transection; for increase in intact neurites at 48 hours after transection: 1 mM exogenous application for 24 hours
# Procedure: To identify the mechanism of delayed axonal degeneration mediated by the Wlds protein, we employed an in-vitro Wallerian degeneration model. Primary DRG explant neurons were infected with lentivirus expressing the appropriate proteins, and axons were injured by either removal of the neuronal cell body (transection) or growth in vincristine (toxic).
# Mouse DRG explants from E12.5 embryos were cultured in the presence of 1 nM nerve growth factor. Non-neuronal cells were removed from the cultures by adding 5-fluorouracil to the culture medium. Transection of neurites was performed at 10-20 DIV using an 18-gauge needle to remove the neuronal cell bodies. Incubation with β-nicotinamide adenine dinucleotide (Sigma) or Sirtinol (Calbiochem) was performed using conditions indicated in the text or figures.
# Quantitative analysis of axonal degeneration was performed as previously described (Zhai, et al., Neuron 39:217-25, 2003). Briefly, the cultures were examined using phase contrast microscopy at the indicated times. Axons with a fragmented, non-refractile appearance were designated as “degenerated.” At each time point, at least 200 singly distinguishable axons were blindly scored from several randomly taken images of each culture. Each condition was tested in triplicate explants in each experiment. Results were obtained from 2-4 independent experiments for each condition. Statistical analysis was performed by Student's T test. For calculations of neurite-covered area, digitally captured images from quadruplicate samples of two independent experiments were analyzed using analysis 3.1 software (Soft Imaging System, Lakewood, Colo.).
# Cell culture, in vitro axotomy, and quantification of axonal degeneration. Mouse DRG explants from E12.5 embryos were cultured in the DMEM containing 10% FCS and 1 nM nerve growth factor. Non-neuronal cells were removed from the cultures by adding 5-fluorouracil to the culture media. Transection of neurites was performed at 14-21 DIV using an 18-gauge needle to remove the neuronal cell bodies. Lentiviral expression vectors were generated. Lentiviral infection was performed 3-7 days prior to axonal transection for 24 hr. Quantitative analysis of neurite degeneration was performed.
# [3] = test system: DRG neurons; test: axonal injury of DRG neurons after hypoxia and reoxygenation; assay type: cell-based; conditions: preincubation 45 min or lentiviral expression; 0.1% O2 8 or 16 hrs, 20 hrs reoxygenation
# Procedure: FIG. 18 illustrates that activation of AMPK protects axons while inhibition of AMPK function enhances axonal injury during oxygen deprivation.
# To examine whether AMPK activation prior to hypoxic stress protects axons from injury, either constitutively active AMPK (CaAMPK) was expressed in DRG neurons, or neurons were preincubated with the AMPK activator AICAR for 45 min prior to hypoxia. […] Thus, treatments that increase AMPK activity (e.g. resveratrol, AICAR) can block the axonal damage and are neuroprotective.
# [4] = test system: neuro2A cells; test: neurite outgrowth in Neuro2a cells; assay type: cell-based
# Procedure: FIG. 11A-D illustrates the resveratrol and AICAR stimulation of neurite outgrowth in Neuro2a cells. Neuro2a cells were switched to serum-starvation medium (medium containing 0.2% FCS) and treated with DMSO (vehicle control), resveratrol (10 μM) or AICAR (1 mM). (A) Serum deprivation of Neuro2a cells results in growth of short neurites that increase in length over 72 h. (B) Resveratrol induced rapid neurite outgrowth resulting in elaborate neurite network formation by 48 h. (C) AICAR stimulated extensive neurite outgrowth similar to that observed with resveratrol. (D).
# FIG. 12A-M illustrates the dependency of resveratrol-induced neurite outgrowth and mitochondrial biogenesis on AMPK. Neuro2a cells were infected with lentivirus expressing GFP only (FUGW, control), dominant negative AMPK (dnAMPK) or constitutively active AMPK (caAMPK). Three days later cells were shifted to serum-starvation medium containing DMSO (control) or resveratrol (10 μM). In addition, uninfected Neuro2a cells in serum-starvation medium were treated with resveratrol alone, the AMPK inhibitor Compound C (CC, Biomol International L.P. (Plymouth Meeting, Pa.)) (10 μM) alone or with resveratrol and CC together. Images of the cultures captured in bright field and green fluorescence were overlaid to visualize neurite outgrowth. […] Neurite length in cells treated with caAMPK+resveratrol is also shown (G). […] Values were normalized to the 18S transcript. Data shown is representative of two independent experiments.
# Cell culture and Reagents. Neuro2 cells obtained from ATCC were grown in MEM with 1.5 g/L sodium bicarbonate, 0.1 mM nonessential amino acids, 0.1 mM sodium pyruvate, 2 mM L-glutamine with 10% FCS. For differentiation, cells were switched to serum-starvation medium (containing 0.2% FCS). For neurite outgrowth measurements, experiments were done in quadruplicate and 100 neurites per well were randomly measured using the Metamorph software. Dorsal root ganglia sensory and cortical neurons were established from E13.5 mouse embryos, maintained in neurobasal medium supplemented with B27 (and NGF for DRG neurons) and infected with lentiviruses as described (Araki et al., 2004, Science 305:1010-1013; Hawley et al., 2005, Cell Metab 2:21-23). Resveratrol was a gift from Sirtris Pharmaceuticals (Cambridge Mass.) and AICAR was obtained from Toronto Research (North York, Canada). Splitomycin and Compound C were purchased from Biomol (Plymouth Meeting, Pa.) and Calbiochem (San Diego, Calif.). Sirtinol and nicotinamide were purchased from Sigma (Saint Louis, Mo.)
# Neuro2a cells are a widely used as in vitro model of neuronal differentiation. These cells cease to proliferate and begin to differentiate, as evidenced by neurite outgrowth, in response to serum starvation, retinoic acid, or growth factors like neurotrophins and GDNF family ligands. […] Neuro2a cells grown under serum starvation conditions (0.2% fetal calf serum) were treated with AICAR (1 mM) or resveratrol (10 μM).
# Since resveratrol activated AMPK and altered the differentiation of Neuro2a cells, we next asked whether AMPK activity was required for resveratrol-induced neurite outgrowth. To address this issue, we infected Neuro2a cells with lentivirus expressing either GFP alone (FUGW-control) or dominant negative AMPK (dnAMPK). After 3 days growth to allow robust lentiviral transgene expression, the medium was replaced with serum starvation medium. […] Resveratrol-induced neurite outgrowth was reduced in the presence of the AMPK pharmacological inhibitor Compound C (CC 10 μM) further supporting the importance of AMPK activity for resveratrol-induced neurite outgrowth.
# [5] = test system: Tfam, PGC-1α and MFN2 mRNA; test: mitochondrial biogenesis markers, quantitative RT-PCR in Neuro2a cells; assay type: cell-based; conditions: with resveratrol 10 μM; Compound C 10 μM or dominant negative AMPK expression
# Procedure: Three days later cells were shifted to serum-starvation medium containing DMSO (control) or resveratrol (10 μM). In addition, uninfected Neuro2a cells in serum-starvation medium were treated with resveratrol alone, the AMPK inhibitor Compound C (CC, Biomol International L.P. (Plymouth Meeting, Pa.)) (10 μM) alone or with resveratrol and CC together. […] Values were normalized to the 18S transcript. Data shown is representative of two independent experiments.
# Protein and mRNA analysis. […] Quantitative RT-PCR analysis was performed using Sybr-Green methodology on a model 7700 instrument (Applied Biosystems) as previously described (Araki et al., 2004, Science 305:1010-1013).
# We treated Neuro2a cells for 3d with either DMSO (control) or resveratrol (10 μM) in the presence or absence of the AMPK inhibitor Compound C (10 μM). We assessed mitochondrial biogenesis by monitoring mRNA levels of mitofusin 2 (MFN2), a mitochondrial protein and marker of mitochondrial mass and two key regulators of mitochondrial biogenesis, peroxisome proliferator activated receptor γ coactivator 1α (PGC1α) and mitochondrial transcription factor A (Tfam) (Kelly, et al., 2004, Genes Dev 18:357-368).
# [6] = test system: neuro2A cells; test: cellular ATP levels, luciferase-based assay in neuro2A cells; assay type: cell-based; conditions: 2 hr
# Procedure: To explore the role of polyphenols, in particular, of resveratrol, we tested whether resveratrol altered the activity of AMPK in neuronal cells. Neuro2a neuroblastoma cells were treated with resveratrol (10 μM) and AMPK activation was examined using phospho-AMPK specific antibodies. […] To confirm that AMPK activation by resveratrol results in typical AMPK-mediated downstream responses, we monitored phosphorylation of ACC (acetyl Co-A carboxylase), a primary target of activated AMPK. […] To examine a potential mechanism of resveratrol-mediated AMPK activation, we measured cellular ATP levels as a decreased ATP:AMP ratio increases the phosphorylation of AMPK. ATP levels were monitored using a luciferase-based assay in neuro2A cells treated with resveratrol or Oligomycin, an inhibitor of mitochondrial oxidative phosphorylation and therefore ATP production. While the ATP concentration dropped from 5.874 μM in DMSO-treated cells (control) to 0.976 μM in Oligomycin treated cells within 2 hr, the ATP concentration in resveratrol-treated Neuro2a cells was not altered from control either at 2 hr (6.33 μM) or 24 hr (6.42 μM).
SMILES,"neurofilament immunoreactivity of axotomized optic nerve, of non-axotomized optic nerve ([1]; 5 μl of 100 mM intravitreal) [%]",neurite protection after transection [2],increase in intact neurites at 48 hours after transection [2],other results
"NC(=O)c1ccc[n+]([C@@H]2O[C@H](COP(=O)([O-])OP(=O)(O)OC[C@H]3O[C@@H](n4cnc5c(N)ncnc54)[C@H](O)[C@@H]3O)[C@@H](O)[C@H]2O)c1 [NAD, nicotinamide adenine dinucleotide]",78±22,,,"neurofilament immunoreactivity of axotomized optic nerve, of non-axotomized optic nerve ([1]; 5 μl of 1 M intravitreal): 77±27%"
"NC(=O)c1ccc[n+]([C@@H]2O[C@H](COP(=O)([O-])O)[C@@H](O)[C@H]2O)c1 [NMN, nicotinamide mononucleotide]",60±25,successfully saved neurites from degeneration,comparable increase in intact neurites,
"NC(=O)c1cccc(N)c1 [3AB, 3-aminobenzamide, reference compound]",,,,"effect on NAD-dependent axonal protection (NDAP) ([2]; neurons cultured in 1 mM NAD, Sirtinol 100 μM, 3AB 20 mM or siRNA lentivirus, 12 to 72 hr after transection): had no effect on NDAP"
c1cc(-c2cnn3cc(-c4ccc(OCCN5CCCCC5)cc4)cnc23)ccn1 [Compound C],,,,"axonal injury (axonal beading) after hypoxia [3]: severe axonal injury; effect on resveratrol-stimulated neurite outgrowth ([4]; resveratrol 10 μM, Compound C 10 μM, SIRT1 inhibitors, STO 609 2.5 μM or dnAMPK expression): reduced; neurite growth, inhibitor by itself ([4]; without resveratrol): did not cause any significant inhibition of neurite growth; effect on resveratrol-induced upregulation of mitochondrial markers [5]: severely diminished"
"O=C(O)c1cccnc1 [Na, nicotinic acid]",,failed to save neurites,,
"Nc1ncnc2c1ncn2[C@@H]1O[C@H](COP(=O)(O)OP(=O)(O)OC[C@H]2O[C@@H]([n+]3cccc(C(=O)O)c3)[C@H](O)[C@@H]2O)[C@@H](O)[C@H]1O [NaAD, nicotininc acid adenine dinucleotide]",,slight protection,less increase in intact neurites at 48 hours compared with NAD,
"CC[C@H]1/C=C/C=C/C[C@@H](C)[C@H](O)[C@@](C)(O)C(=O)[C@@H](C)[C@H](O)[C@@H](C)C(=O)[C@@H](C)[C@H](O)[C@@H](C)/C=C/C(=O)O[C@@H]2[C@H](C)[C@H](CC1)O[C@]1(CC[C@H](C)[C@H](C[C@@H](C)O)O1)[C@H]2C [Oligomycin, reference compound]",,,,ATP concentration [6]: 0.976 µM
"NC(=O)c1ccc[n+]([C@@H]2O[C@H](CO)[C@@H](O)[C@H]2O)c1 [NmR, nicotinamide riboside]",72±19,saved neurites as well as NAD,comparable increase in intact neurites,
"O=C(O)c1ccc[n+]([C@@H]2O[C@H](COP(=O)(O)O)[C@@H](O)[C@H]2O)c1 [NaMN, nicotinate mononucleotide]",,saved neurites as well as NAD,comparable increase in intact neurites,
